Measured values as given in patent publication US11098040B2, “Compounds and methods of use” (Ferro Therapeutics, Inc., priority 2018, dated 2021).
“And” between values parts separate entries of the source, which are not always exact repeats. Equal values may be shown once.

How the values were obtained:
Kasumi-1 = test: Cell viability assay (CellTiter Glo), leukemia cell line Kasumi-1; assay type: cell-based; conditions: Homo sapiens, 96 hours
Experimental: (§1) Cell viability assay was performed to assess the potency of the compounds in human cancer cell lines KP4 (pancreatic ductal adenocarcinoma), MiaPaCa-2 (pancreatic carcinoma), AsPC-1 (pancreatic adenocarcinoma, ascites), 143B (osteosarcoma), and SJSA-1 (osteosarcoma). Selected compounds were also assayed in a human breast epithelial cell line MCF-10A, a nontumorigenic cell line as a control to assess differential activity. Cells at a density of 500-5,000 cells/well were seeded in 96-well plates and incubated at 37° C. overnight. A series of 9 different concentrations of compound stocks (500×) were created by 3-fold serial dilution in DMSO. These compounds were further diluted in culture media and then added to cells so that the final DMSO concentration was equal to 0.25% or less. After 96 hours of incubation, 50 μL of CellTiter Glo reagent (Promega) was added to each well and luminescence was measured after 10 minutes using EnVision (PerkinElmer). Compounds titrated from top concentration of up to 30 μM. The select compounds were tested initially from 30 μM as the top concentration in duplicates (range of 4.6 nM-30 μM). […] Luminescence from cells treated with DMSO alone was set as Max and % of inhibition was calculated as follows: Inhibition %=(Max-Sample value)/Max*100. Data was analyzed using XL-fit software (ID Business Solutions Ltd.). IC50, relative IC50, or % of top inhibition was calculated.
(§2) A group of selected analogs were further profiled in cell viability assays described above in multiple additional cancer cell lines, including lung cancer, melanoma, hepatocarcinoma, pancreatic cancer, leukemia, lymphoma, ovarian cancer, breast cancer, colon cancer, and sarcoma cell lines. Initial cell seeding numbers were adjusted for each cell line. Typically, 500-5000 cells/well for adherent cells and 5000-10000/well for suspension cells were seeded in 96-well plates.
(§3) The results of the assay in the leukemia cell lines are given in Table 16a for MV-4-1 and Table 16b for HL-60 and Kasumi-1.

143B = test: Cell viability assay (CellTiter Glo), osteosarcoma 143B; assay type: cell-based; conditions: Homo sapiens, 96 h, osteosarcoma, 96 hours, CellTiter Glo, read-out: IC50 143B
Experimental: as §1
(§4) The results of the assay in sarcoma cell lines are given in Table 21a for HT-1080 luc2 (fibrosarcoma expressing a luciferase gene), Table 21b for 143B (osteosarcoma), and Table 21c for SJSA-1 (osteosarcoma).

MDA-MB-435S = test: Cell viability assay (CellTiter Glo), melanoma cell line MDA-MB-435S; assay type: cell-based; conditions: Homo sapiens, 96 hours
Experimental: as §1, §2

REC-1 = test: Cell viability assay (CellTiter Glo), lymphoma cell line REC-1; assay type: cell-based; conditions: Homo sapiens, Rec1, 96 hours
Experimental: as §1, §2

HL-60 = test: Cell viability assay (CellTiter Glo), leukemia cell line HL-60; assay type: cell-based; conditions: Homo sapiens, 96 hours
Experimental: as §1, §2, §3

AsPC-1 = test: Cell viability assay (CellTiter Glo), pancreatic adenocarcinoma AsPC-1; assay type: cell-based; conditions: Homo sapiens, ASPC1; pancreatic adenocarcinoma, ascites, 96 hours, CellTiter Glo; read-out: IC50 AsPC-1
Experimental: as §1
(§5) The results of the assay in the pancreatic cell lines are given in Table 15a for PANC1, Table 15b for MiaPaCa-2, and Table 15c for AsPC-1.

PANC1 = test: Cell viability assay (CellTiter Glo), pancreatic cell line PANC1; assay type: cell-based; conditions: Homo sapiens, PANC-1, 96 hours
Experimental: as §1, §2, §5

H2228 = test: Cell viability assay (CellTiter Glo), lung cancer cell line H2228; assay type: cell-based; conditions: Homo sapiens, NCI-H2228; lung cancer cell line, 96 hours, CellTiter Glo; read-out: IC50 H2228
Experimental: as §1, §2

SK-OV-3 = test: Cell viability assay (CellTiter Glo), ovarian cancer cell line SK-OV-3; assay type: cell-based; conditions: Homo sapiens, 96 hours
Experimental: as §1, §2

HCC1954 = test: Cell viability assay (CellTiter Glo), breast cancer cell line HCC1954; assay type: cell-based; conditions: Homo sapiens, 96 hours
Experimental: as §1, §2

MiaPaCa-2 = test: Cell viability assay (CellTiter Glo), pancreatic carcinoma MiaPaCa-2; assay type: cell-based; conditions: Homo sapiens, MIA PaCa-2; pancreatic carcinoma, 96 hours, CellTiter Glo; read-out: IC50 MiaPaCa-2
In short: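 MiaPaCa-2 and AsPC-1 cells were seeded overnight at 37 °C and exposed for 96 h to 9-point, 3-fold dilutions from up to 30 μM (final DMSO ≤0.25%). CellTiter Glo luminescence was read, and inhibition was calculated relative to DMSO-only cells. IC50, relative IC50 or % top inhibition was derived.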

MCF-10A = test: Cell viability assay (CellTiter Glo), non-tumorigenic breast epithelial cell line MCF-10A; assay type: cell-based; conditions: Homo sapiens, 96 hours
In short: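 MCF-10A cells (500-5,000/well) treated 96 h at 37° C with 9-point 3-fold dilutions from up to 30 μM, ≤0.25% DMSO, in duplicate. Viability by CellTiter Glo luminescence; % inhibition versus DMSO-only wells gave IC50, relative IC50 or % top inhibition. Paclitaxel positive control.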

SJSA-1 = test: Cell viability assay (CellTiter Glo), osteosarcoma SJSA-1; assay type: cell-based; conditions: Homo sapiens, 96 hours
In short: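 Cells seeded at 500-5,000/well overnight, then 96 h exposure to 9-point 3-fold dilutions from up to 30 μM (4.6 nM-30 μM), final DMSO ≤0.25%. Viability by CellTiter Glo luminescence; inhibition relative to DMSO-only cells, yielding IC50, relative IC50 or % top inhibition.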

HT29 = test: Cell viability assay (CellTiter Glo), colon cancer cell line HT29; assay type: cell-based; conditions: Homo sapiens, HT-29, 96 hours
Experimental: as §1, §2

SW480 = test: Cell viability assay (CellTiter Glo), colon cancer cell line SW480; assay type: cell-based; conditions: Homo sapiens, 96 hours
Experimental: as §1, §2

HT-1080 luc2 = test: Cell viability assay (CellTiter Glo), fibrosarcoma HT-1080 luc2; assay type: cell-based; conditions: Homo sapiens, fibrosarcoma expressing a luciferase gene, 96 hours, CellTiter Glo, read-out: IC50 HT-1080 luc2
Experimental: as §1, §2, §4

MV-4-1 = test: Cell viability assay (CellTiter Glo), leukemia cell line MV-4-1; assay type: cell-based; conditions: 96 hours
Experimental: as §1, §2, §3

H1299 = test: Cell viability assay (CellTiter Glo), lung cancer cell line H1299; assay type: cell-based; conditions: Homo sapiens, NCI-H1299, 96 hours
Experimental: as §1, §2

Raji = test: Cell viability assay (CellTiter Glo), lymphoma cell line Raji; assay type: cell-based; conditions: Homo sapiens, 96 hours
Experimental: as §1, §2

[1] = Pharmacokinetic (PK) studies in Balb/C nude mice via intraperitoneal injection; conditions: plasma; for concentration at 0.5 h / concentration at 4 h: Calculated Concentration; for concentration at 0.5 h / concentration at 4 h / Calculated Concentration: IP 15 mg/kg, Balb/C nude mice
Huh7 = test: Cell viability assay (CellTiter Glo), hepatocellular carcinoma Huh7; assay type: cell-based; conditions: Homo sapiens, Huh-7, 96 hours
Experimental: as §1, §2

[2] = male, Balb/c nude, mouse, ip, 15 mg/kg

- IC50 (Kasumi-1): 203 nM
- IC50 (143B): 32 nM
- IC50 (MDA-MB-435S): 37 nM
- IC50 (REC-1): 227 nM
- IC50 (HL-60): 104 nM
- IC50 (AsPC-1): 105 nM
- IC50 (PANC1): 116 nM
- IC50 (H2228): 75 nM
- IC50 (SK-OV-3): 142 nM
- IC50 (HCC1954): 180 nM
- IC50 (MiaPaCa-2): 15 nM
- IC50 (SJSA-1): 67 nM
- IC50 (HT29): 832 nM
- IC50 (SW480): 619 nM
- IC50 (HT-1080 luc2): 27 nM
- IC50 (MV-4-1): 258 nM
- IC50 (H1299): 35 nM
- IC50 (Raji): 92 nM
- AUC [1, 2]: 1.28 ng·h/mL
- AUC(0-t) [1, 2]: 1.28 ng·h/mL
- Cmax [1, 2]: 1.33 ng/mL
- Tmax [1, 2]: 1.67 h
- concentration at 0.5 h ([1]; male, Balb/c nude, mouse, ip, 15 mg/kg, 0.5 h, individual mice): 1.18 ng/mL
- concentration at 4 h ([1]; male, Balb/c nude, mouse, ip, 15 mg/kg, 4 h, individual mice): 1.63 ng/mL
- concentration at 0.5 h ([1]; male, Balb/c nude, mouse, ip, 15 mg/kg, Mean, 0.5 h, mean of 3 mice): 0.783 ng/mL
- concentration at 4 h ([1]; male, Balb/c nude, mouse, ip, 15 mg/kg, Mean, 4 h, mean of 3 mice): 0.543 ng/mL
- IC50 (Huh7): 242 nM
Structure (SMILES): COC(=O)c1ccc([C@H]2c3[nH]c4ccccc4c3C[C@H](C(=O)OC)N2C(=O)CCl)cc1 [Example K601, RSL3, reference compound]
- IC50 (MCF-10A): 2950 nM
- Calculated Concentration ([1]; 0.5 h, individual mice, 15 mg/kg): BLOQ (BLOQ = Below limit of quantification (which was 1 ng/mL)) and 1.17 ng/mL
- Calculated Concentration ([1]; 1 h, individual mice): BLOQ (BLOQ = Below limit of quantification (which was 1 ng/mL))
- Calculated Concentration ([1]; 2 h, individual mice): BLOQ (BLOQ = Below limit of quantification (which was 1 ng/mL))
- Calculated Concentration ([1]; 4 h, individual mice, 15 mg/kg): BLOQ (BLOQ = Below limit of quantification (which was 1 ng/mL))
